{"source": "paper PMC10084949", "about": "“Peptide Variant Detection by a Living Yeast Biosensor via an Epitope-Selective Protease” (Biodesign Research, 2023)", "key": {"[1]": {"target": "T1, ScSte2 (Saccharomyces cerevisiae, UniProt D6VTK4)", "T1 construct": "we cloned codon-optimized open reading frames (ORFs) of all 5 proteases and GPCRs; expressed in transfected cells; host or cells: S. cerevisiae yTC391 (from yTC370, native STE2 deleted; pTDH3-ScSTE2 genome-integrated)", "T1 sequence (D6VTK4 whole entry)": "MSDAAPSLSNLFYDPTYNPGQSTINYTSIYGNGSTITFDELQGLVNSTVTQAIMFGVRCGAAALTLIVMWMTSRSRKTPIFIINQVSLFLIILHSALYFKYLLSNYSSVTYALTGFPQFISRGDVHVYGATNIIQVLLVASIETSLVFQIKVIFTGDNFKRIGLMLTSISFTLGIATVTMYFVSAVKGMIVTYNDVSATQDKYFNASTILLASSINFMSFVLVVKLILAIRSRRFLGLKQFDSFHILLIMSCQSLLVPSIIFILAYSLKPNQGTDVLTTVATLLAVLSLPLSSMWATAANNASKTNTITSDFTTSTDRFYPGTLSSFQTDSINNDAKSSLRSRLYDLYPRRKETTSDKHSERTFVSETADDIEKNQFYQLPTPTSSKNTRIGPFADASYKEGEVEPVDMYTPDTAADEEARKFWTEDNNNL", "assay": "cell-based", "settings": "SEM", "method": "(§1) Glycerol stocked strains were streaked out on YPD plate and incubated for 2 days. Three colonies were picked, replated on YPD plate, incubated for 1 day, and then stored at 4 °C. For activation assays, a small scoop of yeast patch from the 3 colonies was resuspended in ~4 ml of YPD medium and incubated overnight. Overnight cells were seeded at an optical density at 600 nm (OD600) of 0.15 (as measured in 96-well plate at 200-μl volume) in SC/Glc medium after washing twice with sterile Mili-Q H2O. GPCR activity and response to increasing concentrations of synthetic peptide ligands were measured in strains carrying appropriate genome-integrated components in 96-well microtiter plates in 200-μl total volume and cultured at 30 °C and 800 rpm, unless otherwise stated. All measurements were performed in biological triplicate. Culture turbidity (OD600) and fluorescence for ymTurquoise2 (excitation, 439 nm; emission, 475 nm; gain, 75) were measured after 0 and 8 h using an Infinite 200 Pro plate reader (Tecan). Dose–response curve was measured at 11 different concentrations of the appropriate synthetic peptide ligand with a constant dilution factor and a no-peptide, H2O control. The absorbance at 600 nm normalized fluorescence values and log10-transformed peptide concentrations were fit to a 4-parameter nonlinear regression model using Prism (GraphPad) to extract GPCR-specific values for basal activation, maximal activation, EC50, and the Hill coefficient.\n(§2) Statistical tests of all experiments were performed using GraphPad Prism version 7 and are detailed within the legend of each figure. In all figures, the data points represent means ± SD of biological triplicates. Curves fitted to all dose–response data were fitted in Prism 7 using the nonlinear regression: variable slope (4-parameter) curve fitting.\n(§3) Changes in EC50 and activation span (maximal fluorescence activation − basal fluorescence activation) due to difference in variant peptide sequences from the wild-type peptides are depicted as ΔlogEC50 from wild-type Pep (variant peptide logEC50 − wild-type peptide logEC50) and ΔSpan from wild-type Pep (variant peptide Span – wild-type peptide Span), respectively. Apparent shift in EC50 and change in activation span in both wild-type and variant peptides due to protease expression are depicted as ΔlogEC50 with protease (peptide logEC50 with protease − peptide logEC50 without protease) and ΔSpan with protease (peptide Span with protease − peptide Span without protease), respectively."}, "[2]": {"target": "T2, ScSte2 + ScBar1 (Saccharomyces cerevisiae, UniProt D6VTK4)", "T2 construct": "we cloned codon-optimized open reading frames (ORFs) of all 5 proteases and GPCRs; expressed in transfected cells; host or cells: S. cerevisiae yBB01 (from yTC370; pTDH3-ScSTE2, two pCCW12-ScBAR1 cassettes, genome-integrated)", "T2 sequence (D6VTK4 whole entry)": "as above", "assay": "Dose-response activation of ScSte2 biosensor strain secreting ScBar1 (two copies, yBB01), fluorescent readout", "assay_type": "cell-based", "settings": "SEM", "method": "as §1, §2, §3"}}}
{"smiles": "CSCC[C@H](NC(=O)[C@@H]1CCCN1C(=O)[C@H](CCC(N)=O)NC(=O)CNC(=O)[C@@H]1CCCN1C(=O)[C@H](CCCCN)NC(=O)[C@H](CC(C)C)NC(=O)[C@H](CCC(N)=O)NC(=O)[C@H](CC(C)C)NC(=O)[C@H](Cc1c[nH]c2ccccc12)NC(=O)[C@H](Cc1c[nH]cn1)NC(=O)[C@H](C)N)C(=O)N[C@@H](Cc1ccc(O)cc1)C(=O)O", "note": "[ScPep1A]", "values": [{"measurement": "EC50", "setting": "[1]", "value": 39.8, "unit": "nM"}, {"measurement": "EC50", "setting": "[2]", "value": 1260, "unit": "nM"}]}
{"smiles": "CSCC[C@H](NC(=O)[C@@H]1CCCN1C(=O)[C@H](CCC(N)=O)NC(=O)CNC(=O)[C@@H]1CCCN1C(=O)[C@H](CCCCN)NC(=O)[C@H](CC(C)C)NC(=O)[C@H](CCC(N)=O)NC(=O)[C@H](CC(C)C)NC(=O)[C@H](Cc1c[nH]c2ccccc12)NC(=O)[C@H](C)NC(=O)[C@@H](N)Cc1c[nH]c2ccccc12)C(=O)N[C@@H](Cc1ccc(O)cc1)C(=O)O", "note": "[ScPep2A]", "values": [{"measurement": "EC50", "setting": "[1]", "value": 79.4, "unit": "nM"}, {"measurement": "EC50", "setting": "[2]", "value": 10000, "unit": "nM"}]}
{"smiles": "CSCC[C@H](NC(=O)[C@@H]1CCCN1C(=O)[C@H](CCC(N)=O)NC(=O)CNC(=O)[C@@H]1CCCN1C(=O)[C@H](CCCCN)NC(=O)[C@H](CC(C)C)NC(=O)[C@H](CCC(N)=O)NC(=O)[C@H](CC(C)C)NC(=O)[C@H](C)NC(=O)[C@H](Cc1c[nH]cn1)NC(=O)[C@@H](N)Cc1c[nH]c2ccccc12)C(=O)N[C@@H](Cc1ccc(O)cc1)C(=O)O", "note": "[ScPep3A]", "values": [{"measurement": "EC50", "setting": "[1]", "value": 63.1, "unit": "nM"}, {"measurement": "EC50", "setting": "[2]", "value": 25100, "unit": "nM"}]}
{"smiles": "CSCC[C@H](NC(=O)[C@@H]1CCCN1C(=O)[C@H](CCC(N)=O)NC(=O)CNC(=O)[C@@H]1CCCN1C(=O)[C@H](CCCCN)NC(=O)[C@H](CC(C)C)NC(=O)[C@H](CCC(N)=O)NC(=O)[C@H](C)NC(=O)[C@H](Cc1c[nH]c2ccccc12)NC(=O)[C@H](Cc1c[nH]cn1)NC(=O)[C@@H](N)Cc1c[nH]c2ccccc12)C(=O)N[C@@H](Cc1ccc(O)cc1)C(=O)O", "note": "[ScPep4A]", "values": [{"measurement": "EC50", "setting": "[2]", "value": 3980, "unit": "nM"}]}
{"smiles": "CSCC[C@H](NC(=O)[C@@H]1CCCN1C(=O)[C@H](CCC(N)=O)NC(=O)CNC(=O)[C@@H]1CCCN1C(=O)[C@H](CCCCN)NC(=O)[C@H](CC(C)C)NC(=O)[C@H](C)NC(=O)[C@H](CC(C)C)NC(=O)[C@H](Cc1c[nH]c2ccccc12)NC(=O)[C@H](Cc1c[nH]cn1)NC(=O)[C@@H](N)Cc1c[nH]c2ccccc12)C(=O)N[C@@H](Cc1ccc(O)cc1)C(=O)O", "note": "[ScPep5A]", "values": [{"measurement": "EC50", "setting": "[1]", "value": 50.1, "unit": "nM"}, {"measurement": "EC50", "setting": "[2]", "value": 501, "unit": "nM"}]}
{"smiles": "CSCC[C@H](NC(=O)[C@@H]1CCCN1C(=O)[C@H](CCC(N)=O)NC(=O)CNC(=O)[C@@H]1CCCN1C(=O)[C@H](CCCCN)NC(=O)[C@H](C)NC(=O)[C@H](CCC(N)=O)NC(=O)[C@H](CC(C)C)NC(=O)[C@H](Cc1c[nH]c2ccccc12)NC(=O)[C@H](Cc1c[nH]cn1)NC(=O)[C@@H](N)Cc1c[nH]c2ccccc12)C(=O)N[C@@H](Cc1ccc(O)cc1)C(=O)O", "note": "[ScPep6A]", "values": [{"measurement": "EC50", "setting": "[1]", "value": 79.4, "unit": "nM"}, {"measurement": "EC50", "setting": "[2]", "value": 3160, "unit": "nM"}]}
{"smiles": "CSCC[C@H](NC(=O)[C@@H]1CCCN1C(=O)[C@H](CCC(N)=O)NC(=O)CNC(=O)[C@@H]1CCCN1C(=O)[C@H](C)NC(=O)[C@H](CC(C)C)NC(=O)[C@H](CCC(N)=O)NC(=O)[C@H](CC(C)C)NC(=O)[C@H](Cc1c[nH]c2ccccc12)NC(=O)[C@H](Cc1c[nH]cn1)NC(=O)[C@@H](N)Cc1c[nH]c2ccccc12)C(=O)N[C@@H](Cc1ccc(O)cc1)C(=O)O", "note": "[ScPep7A]", "values": [{"measurement": "EC50", "setting": "[1]", "value": 126, "unit": "nM"}, {"measurement": "EC50", "setting": "[2]", "value": 3980, "unit": "nM"}]}
{"smiles": "CSCC[C@H](NC(=O)[C@@H]1CCCN1C(=O)[C@H](CCC(N)=O)NC(=O)CNC(=O)[C@H](C)NC(=O)[C@H](CCCCN)NC(=O)[C@H](CC(C)C)NC(=O)[C@H](CCC(N)=O)NC(=O)[C@H](CC(C)C)NC(=O)[C@H](Cc1c[nH]c2ccccc12)NC(=O)[C@H](Cc1c[nH]cn1)NC(=O)[C@@H](N)Cc1c[nH]c2ccccc12)C(=O)N[C@@H](Cc1ccc(O)cc1)C(=O)O", "note": "[ScPep8A]", "values": [{"measurement": "EC50", "setting": "[1]", "value": 79.4, "unit": "nM"}, {"measurement": "EC50", "setting": "[2]", "value": 2510, "unit": "nM"}]}
{"smiles": "CSCC[C@H](NC(=O)[C@@H]1CCCN1C(=O)[C@H](CCC(N)=O)NC(=O)[C@H](C)NC(=O)[C@@H]1CCCN1C(=O)[C@H](CCCCN)NC(=O)[C@H](CC(C)C)NC(=O)[C@H](CCC(N)=O)NC(=O)[C@H](CC(C)C)NC(=O)[C@H](Cc1c[nH]c2ccccc12)NC(=O)[C@H](Cc1c[nH]cn1)NC(=O)[C@@H](N)Cc1c[nH]c2ccccc12)C(=O)N[C@@H](Cc1ccc(O)cc1)C(=O)O", "note": "[ScPep9A]", "values": [{"measurement": "EC50", "setting": "[1]", "value": 158, "unit": "nM"}, {"measurement": "EC50", "setting": "[2]", "value": 15800, "unit": "nM"}]}
{"smiles": "CSCC[C@H](NC(=O)[C@@H]1CCCN1C(=O)[C@H](C)NC(=O)CNC(=O)[C@@H]1CCCN1C(=O)[C@H](CCCCN)NC(=O)[C@H](CC(C)C)NC(=O)[C@H](CCC(N)=O)NC(=O)[C@H](CC(C)C)NC(=O)[C@H](Cc1c[nH]c2ccccc12)NC(=O)[C@H](Cc1c[nH]cn1)NC(=O)[C@@H](N)Cc1c[nH]c2ccccc12)C(=O)N[C@@H](Cc1ccc(O)cc1)C(=O)O", "note": "[ScPep10A]", "values": [{"measurement": "EC50", "setting": "[1]", "value": 126, "unit": "nM"}, {"measurement": "EC50", "setting": "[2]", "value": 6310, "unit": "nM"}]}
{"smiles": "CSCC[C@H](NC(=O)[C@H](C)NC(=O)[C@H](CCC(N)=O)NC(=O)CNC(=O)[C@@H]1CCCN1C(=O)[C@H](CCCCN)NC(=O)[C@H](CC(C)C)NC(=O)[C@H](CCC(N)=O)NC(=O)[C@H](CC(C)C)NC(=O)[C@H](Cc1c[nH]c2ccccc12)NC(=O)[C@H](Cc1c[nH]cn1)NC(=O)[C@@H](N)Cc1c[nH]c2ccccc12)C(=O)N[C@@H](Cc1ccc(O)cc1)C(=O)O", "note": "[ScPep11A]", "values": [{"measurement": "EC50", "setting": "[1]", "value": 50.1, "unit": "nM"}, {"measurement": "EC50", "setting": "[2]", "value": 2510, "unit": "nM"}]}
{"smiles": "CC(C)C[C@H](NC(=O)[C@H](Cc1c[nH]c2ccccc12)NC(=O)[C@H](Cc1c[nH]cn1)NC(=O)[C@@H](N)Cc1c[nH]c2ccccc12)C(=O)N[C@@H](CCC(N)=O)C(=O)N[C@@H](CC(C)C)C(=O)N[C@@H](CCCCN)C(=O)N1CCC[C@H]1C(=O)NCC(=O)N[C@@H](CCC(N)=O)C(=O)N1CCC[C@H]1C(=O)N[C@@H](C)C(=O)N[C@@H](Cc1ccc(O)cc1)C(=O)O", "note": "[ScPep12A]", "values": [{"measurement": "EC50", "setting": "[1]", "value": 50.1, "unit": "nM"}, {"measurement": "EC50", "setting": "[2]", "value": 1000, "unit": "nM"}]}
{"smiles": "CSCC[C@H](NC(=O)[C@@H]1CCCN1C(=O)[C@H](CCC(N)=O)NC(=O)CNC(=O)[C@@H]1CCCN1C(=O)[C@H](CCCCN)NC(=O)[C@H](CC(C)C)NC(=O)[C@H](CCC(N)=O)NC(=O)[C@H](CC(C)C)NC(=O)[C@H](Cc1c[nH]c2ccccc12)NC(=O)[C@H](Cc1c[nH]cn1)NC(=O)[C@@H](N)Cc1c[nH]c2ccccc12)C(=O)N[C@@H](C)C(=O)O", "note": "[ScPep13A]", "values": [{"measurement": "EC50", "setting": "[1]", "value": 63.1, "unit": "nM"}, {"measurement": "EC50", "setting": "[2]", "value": 7940, "unit": "nM"}]}
